Among the data in US10131648B2, “Substituted benzothiophenyl derivatives as GPR40 agonists for the treatment of type II diabetes” (Janssen Pharmaceutica NV, priority 2014, dated 2018) are EC50 values, retold here.

The test concerns the target human GPR40 (Homo sapiens (Human), UniProt O14842). The experiment in a line: GPR40 Calcium Flux Assay. The class given is cell-based. The settings on record: transfected HEK293 cells stably expressing human GPR40; Ca2+ mobilization; mean data; read-out: hGPR40 Ca^2+ Assay EC50. As for the experimental part:
Compounds were tested in a calcium flux assay using transfected HEK293 cells stably expressing either human GPR40 or rat GPR40. Human GPR40 expressing cells were cultured in DMEM-High Glucose media supplemented with 10% fetal bovine serum, 1×L-Glutamine, 1×Penicillin/Streptomycin and 500 μg/mL G418. Rat GPR40 expressing cells were cultured in DMEM-High Glucose media supplemented with 10% fetal bovine serum and 1 μg/mL puromycin. Cells were plated into poly-D-lysine coated 384-well plates and cultured overnight in a 37° C. humidified tissue culture incubator under 5% CO2/[…] atmosphere. On the day of the experiment, the culture media was replaced with assay buffer (HBSS, 20 mM HEPES, 0.1% BSA) and the cells incubated at 37° C. for 1 h. Calcium-sensitive fluorescent dye (Fluo 8 No-Wash Calcium Dye, ABD Bioquest) was then added and the cells incubated for another 30 min at 37° C. followed by 15 min at room temperature while protected from the light. The cell plate and a plate of diluted compounds of Formula (I) were loaded into a fluorescent plate reader that added compounds onto the cells while measuring the fluorescence intensity of each well. The plate reader recorded fluorescence intensity at 1 second intervals for 8 min and provided the data for analysis in an Excel format. EC50 values were calculated using Prism (GraphPad) software.

human GPR40, sequence (O14842 whole entry): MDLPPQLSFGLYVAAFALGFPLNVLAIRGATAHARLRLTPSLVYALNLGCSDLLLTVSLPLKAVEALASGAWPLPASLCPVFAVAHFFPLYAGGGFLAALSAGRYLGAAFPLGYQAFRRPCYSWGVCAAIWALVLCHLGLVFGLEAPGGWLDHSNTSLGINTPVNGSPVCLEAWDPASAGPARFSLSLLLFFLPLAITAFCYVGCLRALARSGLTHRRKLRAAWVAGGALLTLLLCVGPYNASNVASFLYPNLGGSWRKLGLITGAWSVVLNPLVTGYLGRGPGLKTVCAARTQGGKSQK

Turning to `CC#C[C@@H](CC(=O)O)c1ccc(OCc2ccc3scc(-c4cc(OCCOC)cnc4C)c3c2)nc1` [Cpd 92, (3R)-3-(6-((3-(5-(2-Methoxyethoxy)-2-methylpyridin-3-yl)benzo[b]thiophen-5-yl)methoxy)pyridine-3-yl)hex-4-ynoic acid], the EC50 amounted to 13 nM.
The same measure for `CC#C[C@@H](CC(=O)O)c1ccc(COc2ccc3scc(-c4ccc(C5CCS(=O)(=O)CC5)cc4C)c3c2)cc1` [Cpd 26, (3S)-3-(4-(((3-(4-(1,1-Dioxidotetrahydro-2H-thiopyran-4-yl)-2-methylphenyl)benzo[b]thiophen-5-yl)oxy)methyl)phenyl)hex-4-ynoic acid]: 18 nM; for `CC#C[C@@H](CC(=O)O)c1ccc(OCc2ccc3scc(-c4cccc(OCCOC)c4C)c3c2)nc1` [Cpd 88, (3R)-3-(6-((3-(3-(2-Methoxyethoxy)-2-methylphenyl)benzo[b]thiophen-5-yl)methoxy)pyridin-3-yl)hex-4-ynoic acid]: 8 nM; for `Cc1ccccc1-c1csc2ccc(COc3ccc([C@]4(CC(=O)O)C[C@@H](O)C4)cc3)cc12` [Cpd 31]: 48 nM.
The same measure for `CC#C[C@H](CC(=O)O)c1ccc(OCc2ccc3scc(-c4ccc(OCC5CCOCC5)cc4C)c3c2)nc1` [Cpd 72, (3S)-3-(6-((3-(2-Methyl-4-((tetrahydro-2H-pyran-4-yl)methoxy)phenyl)benzo[b]thiophen-5-yl)methoxy)pyridin-3-yl)hex-4-ynoic acid]: 1330 nM.
For `CC#CC(CC(=O)O)c1ccc(OCc2ccc3scc(-c4ccc(OCC5(C)CS(=O)(=O)C5)cc4C)c3c2)nc1` (stereo not drawn) [Cpd 64, 3-(6-((3-(2-Methyl-4-((3-methyl-1,1-dioxidothietan-3-yl)methoxy)phenyl)benzo[b]thiophen-5-yl)methoxy)pyridin-3-yl)hex-4-ynoic acid], the EC50 worked out at 21 nM.
As for `CC#CC(CC(=O)O)c1ccc(OCc2ccc3scc(-c4ccc(OCC(O)CO)cc4C)c3c2)nc1` (stereo not drawn) [Cpd 62, 3-(6-((3-(4-(2,3-Dihydroxypropoxy)-2-methylphenyl)benzo[b]thiophen-5-yl)methoxy)pyridin-3-yl)hex-4-ynoic acid], the figure is 10 nM; as for `CC#C[C@@H](CC(=O)O)c1ccc(OCc2ccc3scc(-c4ccc(CC5CCNCC5)cc4C)c3c2)cc1` [Cpd 95, (3S)-3-(4-((3-(2-Methyl-4-(piperidin-4-ylmethyl)phenyl)benzo[b]-thiophen-5-yl)methoxy)phenyl)hex-4-ynoic acid], 4 nM; as for `CC#C[C@@H](CC(=O)O)c1ccc(OCc2ccc3sc(C)c(-c4ccc(OC5CCS(=O)(=O)CC5)cc4C)c3c2)cc1` [Cpd 9, (3S)-3-[4-[[3-[4-(1,1-Dioxothian-4-yl)oxy-2-methyl-phenyl]-2-methyl-benzo[b]thiophen-5-yl]methoxy]phenyl]hex-4-ynoic acid], 17 nM.
The same measure for `CC#C[C@@H](CC(=O)O)c1ccc(OCc2ccc3scc(-c4ccc(OC5CCOCC5)cc4C)c3c2)cc1` [Cpd 15, (3S)-3-(4-((3-(2-Methyl-4-((tetrahydro-2H-pyran-4-yl)oxy)phenyl)benzo[b]thiophen-5-yl)methoxy)phenyl)hex-4-ynoic acid]: 2 nM; for `CC#C[C@@H](CC(=O)O)c1ccc(OCc2ccc3scc(-c4nc(OC)ccc4C)c3c2)cc1` [Cpd 94, (3S)-3-(4-((3-(6-Methoxy-3-methylpyridin-2-yl)benzo[b]thiophen-5-yl)methoxy)phenyl)hex-4-ynoic acid]: 15 nM.
As for `Cc1cc(C2=CCS(=O)(=O)CC2)ccc1-c1csc2ccc(COc3ccc(C4(CC(=O)O)CC(=O)C4)cc3)cc12` [Cpd 28, 2-(1-(4-((3-(4-(1,1-Dioxido-3,6-dihydro-2H-thiopyran-4-yl)-2-methylphenyl)benzo[b]thiophen-5-yl)methoxy)phenyl)-3-oxocyclobutyl)acetic acid], the figure is 12 nM; as for `CCOCCOc1ccc(-c2csc3ccc(COc4ccc(C5(CC(=O)O)CC(=O)C5)cc4)cc23)c(C)c1` [Cpd 32, 2-(1-(4-((3-(4-(2-Ethoxyethoxy)-2-methylphenyl)benzo[b]thiophen-5-yl)methoxy)phenyl)-3-oxocyclobutyl)acetic acid], 36 nM.
Turning to `CC#C[C@@H](CC(=O)O)c1ccc(OCc2ccc3scc(-c4ccc(O)cc4C)c3c2)cc1` [Cpd 7, (3S)-3-[4-[[3-(4-Hydroxy-2-methyl-phenyl)benzo[b]thiophen-5-yl]methoxy]phenyl]hex-4-ynoic acid], the 50% effective concentration (EC50) came to 7 nM.
In the case of `CC#C[C@@H](CC(=O)O)c1ccc(OCc2ccc3scc(-c4ncc(OCCOC)cc4C)c3c2)nc1` [Cpd 89, (3R)-3-(6-((3-(5-(2-Methoxyethoxy)-3-methylpyridin-2-yl)benzo[b]thiophen-5-yl)methoxy)pyridin-3-yl)hex-4-ynoic acid], the EC50 was 20 nM.
On to `CC#C[C@@H](CC(=O)O)c1ccc(OCc2ccc3scc(-c4ccc(C5=CCS(=O)(=O)CC5)cc4C)c3c2)cc1` [Cpd 6, (3S)-3-[4-[[3-[4-(1,1-Dioxo-3,6-dihydro-2H-thiopyran-4-yl)-2-methyl-phenyl]benzo[b]thiophen-5-yl]methoxy]phenyl]hex-4-ynoic acid], for which the EC50 amounted to 15 nM.
For the compound `CC#C[C@@H](CC(=O)O)c1ccc(COc2ccc3scc(-c4ccc(OCCOC)cc4C)c3c2)cc1` [Cpd 58, (3S)-3-[4-[([3-[4-(2-Methoxyethoxy)-2-methylphenyl]-1-benzothiophen-5-yl]oxy)methyl]phenyl]hex-4-ynoic acid], the concentration for a half-maximal effect (EC50) came out at 14 nM.
As for `CC#CC(CC(=O)O)c1ccc(OCc2ccc3scc(-c4ccc(OCC5CCS(=O)(=O)CC5)cc4C)c3c2)nc1` (stereo not drawn) [Cpd 63, 3-(6-((3-(4-((1,1-Dioxidotetrahydro-2H-thiopyran-4-yl)methoxy)-2-methylphenyl)benzo[b]thiophen-5-yl)methoxy)pyridin-3-yl)hex-4-ynoic acid], the EC50 was determined as 10 nM.
The same measure for `CC#CC(CC(=O)O)c1ccc(OCc2ccc3scc(-c4ccc(OCCC(C)(C)O)cc4C)c3c2)nc1` (stereo not drawn) [Cpd 61]: 16 nM.
As for `CC#CC(CC(=O)O)c1ccc(OCc2ccc3scc(-c4ccc(OCCOC)cc4C)c3c2)nc1` (stereo not drawn) [Cpd 47, 3-(6-((3-(4-(2-Methoxyethoxy)-2-methylphenyl)benzo[b]thiophen-5-yl)methoxy)pyridin-3-yl)hex-4-ynoic acid], the figure is 20 nM; as for `Cc1cc(C2CCS(=O)(=O)CC2)ccc1-c1csc2ccc(COc3ccc(C4(CC(=O)O)CC(=O)C4)cc3)cc12` [Cpd 29, 2-(1-(4-((3-(4-(1,1-Dioxidotetrahydro-2H-thiopyran-4-yl)-2-methylphenyl)benzo[b]thiophen-5-yl)methoxy)phenyl)-3-oxocyclobutyl)acetic acid], 34 nM; as for `CC#C[C@@H](CC(=O)O)c1ccc(OCc2ccc3scc(-c4cccc(OCCOC)c4C)c3c2)cc1` [Cpd 67, (3S)-3-[4-([3-[3-(2-Methoxyethoxy)-2-methylphenyl]-1-benzothiophen-5-yl]methoxy)phenyl]hex-4-ynoic acid], 9 nM.
The same measure for `CC#C[C@@H](CC(=O)O)c1ccc(COc2ccc3scc(-c4ccc(OCC5(C)CS(=O)(=O)C5)cc4C)c3c2)cc1` [Cpd 60, (3S)-3-(4-(((3-(2-Methyl-4-((3-methyl-1,1-dioxidothietan-3-yl)methoxy)phenyl)benzo[b]thiophen-5-yl)oxy)methyl)phenyl)hex-4-ynoic acid]: 70 nM; for `CC#C[C@@H](CC(=O)O)c1ccc(OCc2ccc3scc(-c4c(C)cccc4NS(C)(=O)=O)c3c2)cc1` [Cpd 44, (3S)-3-(4-((3-(2-Methyl-6-(methylsulfonamido)phenyl)benzo[b]thiophen-5-yl)methoxy)phenyl)hex-4-ynoic acid]: 22 nM.
For `CC#C[C@@H](CC(=O)O)c1ccc(COc2ccc3scc(-c4ccc(OCCCS(C)(=O)=O)cc4C)c3c2)cc1` [Cpd 24, (3S)-3-(4-(((3-(2-Methyl-4-(3-(methylsulfonyl)propoxy)phenyl)benzo[b]thiophen-5-yl)oxy)methyl)phenyl)hex-4-ynoic acid], the EC50 is 9 nM.
Regarding `CCOCCOc1ccc(-c2csc3ccc(COc4ccc([C@]5(CC(=O)O)C[C@@H](O)C5)cc4)cc23)c(C)c1` [Cpd 35], the concentration for a half-maximal effect (EC50) is 26 nM.
The same measure for `CC#C[C@@H](CC(=O)O)c1ccc(OCc2ccc3scc(-c4ncc(OC)cc4C)c3c2)cc1` [Cpd 84, (3S)-3-(4-((3-(5-Methoxy-3-methylpyridin-2-yl)benzo[b]thiophen-5-yl)methoxy)phenyl)hex-4-ynoic acid]: 52 nM.
The same measure for `CC#C[C@@H](CC(=O)O)c1ccc(OCc2ccc3scc(-c4c(C)cccc4OCCOC)c3c2)cc1` [Cpd 66, (3S)-3-[4-([3-[2-(2-Methoxyethoxy)-6-methylphenyl]-1-benzothiophen-5-yl]methoxy)phenyl]hex-4-ynoic acid]: 14 nM.
As for `Cc1ncccc1-c1csc2ccc(COc3ccc([C@]4(CC(=O)O)C[C@@H](O)C4)cc3)cc12` [Cpd 39], the figure is 46 nM; as for `CC#C[C@@H](CC(=O)O)c1ccc(OCc2ccc3scc(-c4cnc(OCCOC)cc4C)c3c2)cc1` [Cpd 51, (3S)-3-(4-((3-(6-(2-Methoxyethoxy)-4-methylpyridin-3-yl)benzo[b]thiophen-5-yl)methoxy)phenyl)hex-4-ynoic acid], 6 nM.

As usually defined, the EC50 is the concentration at which the effect is half-maximal.
